Results taken from patent US20220146526A1, “METHOD FOR EVALUATING SAMPLE, ANALYSIS METHOD, METHOD FOR DETECTING DEGRADED SAMPLE, MARKER FOR DETECTING DEGRADED BLOOD PLASMA SAMPLE, AND MARKER FOR DETECTING DEGRADED SERUM SAMPLE” (SHIMADZU CORPORATION, priority 2019, published 2022).

Columns and labels:
Assay type in all cases: physicochemical, human
[1] = LC/MS of blood plasma sample: number of times of freezing and thawing (Table F); conditions: for Rate of increase or decrease: detection intensity relative to 1 at 2 times; for Increase or decrease: detection intensity
Procedure: (§1) At room temperature, 5 mL of blood from a healthy subject was taken into a blood-collecting vessel containing EDTA, and the blood-collecting vessel was inverted for mixing, then cooled, and allowed to stand at 4° C. Here, in order to investigate how the detection intensity of molecules contained in the sample was affected in a case where the time to cooling was set to 5 minutes or more as compared to that in a case where the time to cooling was set to 1 minute or less, preparations were performed under both the former condition and the latter condition. After standing, the blood sample was subjected to centrifugation under a condition of 4° C., 3000 rpm, and 15 minutes. […] After centrifugation, the blood-collecting vessel was left to stand at room temperature for 30 minutes, and the blood plasma was isolated during this 30 minutes. The obtained blood plasma sample was frozen and stored. Here, in order to investigate how the detection intensity of molecules contained in the sample was affected in cases where freezing and thawing was performed 4 times, 6 times, and 10 times after freezing as compared to that in a case where freezing and thawing was performed 2 times after freezing, freezing and thawing was performed under the respective conditions of 2, 4, 6, and 10 times.
(§2) Frozen blood plasma samples and serum samples were subjected to GC/MS or LC/MS. In GC/MS, the blood plasma samples and serum samples were subjected to methoxymation and trimethylsilylation and then introduced to GC-MS.
(§3) Analysis column: Discovery HS F5-3 (inner diameter of 2.1 mm, length of 150 mm, film thickness of 3 μm) (Sigma-Aldrich)
(§4) Column temperature: 40° C.
(§5) (A) 0.1% formic acid (dissolved in water)
(§6) (B) 0.1% formic acid (dissolved in acetonitrile)
(§7) Flow velocity: 0.25 mL/min
(§8) Ionization method: electrospray
(§9) Temperature: • Desolvation Line (DL) temperature: 250° C. • Heat block temperature: 400° C. • Interface temperature: 300° C.
(§10) Gas flow rate: • Nebulizer gas flow rate: 3.0 L/min • Drying gas flow rate: 10.0 L/min • Heating gas flow rate: 10.0 L/min
(§11) Mode: multiple reaction monitoring (MRM)
The rate of increase or decrease in Table F is the value of detection intensity relative to 1 that is the detection intensity in a case where the number of times of freezing and thawing is set to 2 times.

[2] = LC/MS of serum sample: number of times of freezing and thawing (Table M); set-up: key to Rate of increase or decrease: detection intensity relative to 1 at 2 freeze-thaw cycles; conditions: for Number of times when compound is affected / Increase or decrease: serum sample, LC/MS; for Number of times when compound is affected: detection intensity changed by 30% or more vs 2 times of freezing and thawing; for Increase or decrease: detection intensity vs 2 times of freezing and thawing
In short: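 Serum was isolated at room temperature after centrifugation at room temperature, 3500 rpm, 5 minutes, then frozen and freeze-thawed 2, 4, 6 or 10 times. LC/MS used a Discovery HS F5-3 column at 40° C with formic acid water/acetonitrile, electrospray MRM. Intensity is relative to 2 freeze-thaw cycles.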

[3] = LC/MS of blood plasma sample: time from blood collection to centrifugation (Table D); conditions: for Increase or decrease: detection intensity; for Increase or decrease / Rate of increase or decrease: blood collection to centrifugation; for Rate of increase or decrease (second value, decrease) / Rate of increase or decrease (first value, increase): different from individual to individual, relative to 1 at 15 minutes, collection to centrifugation; for Rate of increase or decrease (second value, decrease): individuals with decrease; for Rate of increase or decrease (first value, increase): individuals with increase; for Rate of increase or decrease: detection intensity relative to 1 at 15 minutes
Procedure: as §1, §2, §3, §4, §5, §6, §7, §8, §9, §10, §11
The rate of increase or decrease in Table D is the value of detection intensity relative to 1 that is the detection intensity in a case where the time from blood collection to centrifugation is set to 15 minutes.

[4] = LC/MS of serum sample: time from blood collection to centrifugation (Table J); conditions: for Rate of increase or decrease: detection intensity relative to 1 at 15 minutes; for Increase or decrease / Time when compound is affected: serum sample, LC/MS; for Increase or decrease: detection intensity vs 15 minutes from blood collection to centrifugation; for Time when compound is affected: time from blood collection to centrifugation, detection intensity changed by 30% or more vs 15 minutes
Procedure: After standing, the blood sample was subjected to centrifugation under a condition of room temperature, 3500 rpm, and 5 minutes. […] After centrifugation, the blood-collecting vessel was left to stand at room temperature, and the serum was isolated during this time. Here, in order to investigate how the detection intensity of molecules contained in the sample was affected in cases where the time during which the blood-collecting vessel was left at room temperature was set to 1 hour and 6 hours as compared to that in a case where the time was set to 30 minutes, preparations were performed under the respective conditions of 30 minutes, 1 hour, and 6 hours. The obtained serum sample was frozen and stored. Here, in order to investigate how the detection intensity of molecules contained in the sample was affected in cases where freezing and thawing was performed 4 times, 6 times, and 10 times after freezing as compared to that in a case where freezing and thawing was performed 2 times after freezing, freezing and thawing was performed under the respective conditions of 2, 4, 6, and 10 times.
as §2, §3, §4, §5, §6, §7, §8, §9, §10, §11
The rate of increase or decrease in Table J is the value of detection intensity relative to 1 that is the detection intensity in a case where the time from blood collection to centrifugation is set to 15 minutes.

[5] = GC/MS of serum sample: time from blood collection to centrifugation (Table G); conditions: blood collection to centrifugation
In short: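 Blood was held for varying times before centrifugation (room temperature, 3500 rpm, 5 min); serum was frozen, then methoxymated and trimethylsilylated for GC/MS with electron ionization in MRM mode. Values are detection intensities relative to the 15-minute collection-to-centrifugation condition, set as 1.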

[6] = GC/MS of serum sample: time from centrifugation to isolation (Table H); set-up: key to Rate of increase or decrease / Rate of increase or decrease (first value, increase): detection intensity relative to 1 at 30 min centrifugation-to-isolation
In short: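 Blood was centrifuged at room temperature, 3500 rpm, 5 min, and the vessel left at room temperature for 30 min, 1 h or 6 h before serum isolation. Serum was methoxymated, trimethylsilylated and analysed by GC/MS with electron ionization in MRM mode; intensities expressed relative to the 30-min condition (=1).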

[7] = GC/MS of serum sample: number of times of freezing and thawing (Table I); set-up: key to Rate of increase or decrease / Rate of increase or decrease (first value, increase): detection intensity relative to 2 freeze-thaw cycles = 1; conditions: serum, GC/MS
In short: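 Serum was isolated after centrifugation at room temperature (3500 rpm, 5 min), frozen, and put through 2, 4, 6 or 10 freeze–thaw cycles. Samples were methoxymated and trimethylsilylated, then run by electron-ionization GC/MS in MRM mode on a BPX5 column (60 to 330 °C). Detection intensity is given relative to the 2-cycle sample, set as 1.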

[8] = freezing and thawing 4 times vs 2 times
[9] = 4 times of freezing and thawing, detection intensity relative to 1 at 2 times
[10] = freezing and thawing 10 times vs 2 times
[11] = 6 times of freezing and thawing, detection intensity relative to 1 at 2 times
[12] = after 12 hours from blood collection to centrifugation
[13] = freezing and thawing 6 times vs 2 times

Compound | Number of times when compound is affected [2] | Increase or decrease [2] | Increase or decrease ([3]; after 12 hours vs 15 minutes) | Rate of increase or decrease (second value, decrease) ([3]; after 12 hours) | Rate of increase or decrease (first value, increase) ([3]; after 12 hours) | Increase or decrease [4] | Time when compound is affected [4] | Increase or decrease [1, 10] | Rate of increase or decrease [2, 11] | Rate of increase or decrease ([1]; freezing and thawing 10 times) | further results
CN(CC(=O)O)C(=N)N [Creatine] | 4 times | Decrease | Different from individual | 0.66 | 1.67 | – | – | – | – | – | Rate of increase or decrease ([1]; freezing and thawing 4 times): 1.39; Increase or decrease [1, 8]: Increase; Rate of increase or decrease [2, 9]: 0.63
O=C(O)CCC(=O)O [Succinic acid] | 4 times | Increase | – | – | – | Increase | After 6 hours | – | – | – | Rate of increase or decrease ([1]; freezing and thawing 4 times): 1.46; Increase or decrease [1, 8]: Increase; Rate of increase or decrease [2, 9]: 1.47; Rate of increase or decrease ([3]; after 4 hours): 0.50; Rate of increase or decrease ([3]; after 6 hours): 0.61; Increase or decrease ([3]; after 4 hours vs 15 minutes): Decrease; Increase or decrease ([3]; after 6 hours vs 15 minutes): Decrease; Rate of increase or decrease ([4]; after 6 hours from blood collection to centrifugation): 1.57
NCC(=O)O [Glycine] | 6 times | Decrease | – | – | – | Increase | After 12 hours | Increase | 0.69 | – | Rate of increase or decrease [4, 12]: 1.50
NC(=O)C[C@H](N)C(=O)O [Asparagine] | 6 times | Decrease | – | – | – | Increase | After 12 hours | Increase | 0.66 | 1.38 | Rate of increase or decrease [4, 12]: 1.40
C[C@H](N)C(=O)O [Alanine] | 6 times | Different from individual | Different from individual | 0.64 | 1.41 | – | – | Increase | – | 1.34 | Rate of increase or decrease ([2]; 6 times of freezing and thawing, relative to 1 at 2 times, different from individual to individual, second value (decrease)): 0.63
N[C@@H](CCC(=O)O)C(=O)O [Glutamic acid] | 10 times | Decrease | – | – | – | Increase | After 4 hours | Increase | – | 5.21 | Rate of increase or decrease ([2]; 10 times of freezing and thawing, detection intensity relative to 1 at 2 times): 0.63; Rate of increase or decrease ([4]; after 4 hours from blood collection to centrifugation): 3.09
CN=C(NC)NCCC[C@H](N)C(=O)O [Symmetric dimethylarginine] | 6 times | Decrease | Different from individual | 0.68 | 1.78 | – | – | Increase | 0.55 | 1.31 | –
C[N+](C)(C)CC(O)CC(=O)[O-] (centres unmarked) [Carnitine] | 6 times | Decrease | Different from individual | 0.64 | 1.57 | – | – | – | 0.67 | – | Rate of increase or decrease ([1]; freezing and thawing 6 times): 1.30; Increase or decrease [1, 13]: Increase
N[C@@H](Cc1c[nH]cn1)C(=O)O [Histidine] | 6 times | Decrease | – | – | – | Increase | After 12 hours | Increase | 0.61 | 1.36 | Rate of increase or decrease [4, 12]: 1.46
NC(=O)NCCC[C@H](N)C(=O)O [Citrulline] | 6 times | Decrease | Decrease | – | – | – | – | Increase | 0.62 | 1.33 | Rate of increase or decrease ([3]; after 12 hours): 0.68
O=C(O)[C@@H]1CC(O)CN1 (some centres unmarked) [4-Hydroxyproline] | 6 times | Decrease | Different from individual | 0.69 | 1.33 | – | – | Increase | 0.66 | 1.34 | Rate of increase or decrease ([5]; detection intensity relative to 1 at 15 minutes, after 12 hours): 1.44; Increase or decrease ([5]; detection intensity, after 12 hours vs 15 minutes): Increase; Rate of increase or decrease ([6]; detection intensity relative to 1 at 30 minutes, after 1 hour): 1.33; Increase or decrease ([6]; detection intensity, after 1 hour vs 30 minutes): Increase; Rate of increase or decrease ([7]; detection intensity relative to 1 at 2 times, freezing and thawing 4 times): 1.40; Increase or decrease ([7]; detection intensity, freezing and thawing 4 times vs 2 times): Increase
Nc1ccccc1C(=O)CC(N)C(=O)O (centres unmarked) [Kynurenine] | 4 times | Decrease | Different from individual | 0.66 | 1.85 | – | – | – | – | – | Rate of increase or decrease ([1]; freezing and thawing 6 times): 1.37; Increase or decrease [1, 13]: Increase; Rate of increase or decrease [2, 9]: 0.67
